# Measured values taken from US20230226066A1, “COMPOUNDS FOR THE TREATMENT OF VIRAL INFECTIONS” (MERCK PATENT GMBH, priority 2020, published 2023).
# Experiments:
# Assay type in all cases: cell-based
# SARS-CoV2/ZG/297-20 = details: MOI 0.05; 120 hours observation; Compound 1 at 1-81 μM, Compound 2 at 9-81 μM; compared to uninfected and infected control cells; FIGS. 1 and 2
# [1] = Cytotoxic effect on Vero cells, assessed in parallel; details: African green monkey, FIG. 5, read-out: half maximal cytotoxic concentration (CC50), viability of Vero cells
# Description: (§1) The antiviral effect of Compounds is evaluated against Dengue virus serotype 2 (DENV-2) using cytopathic effect (CPE) inhibition assay. Cytotoxic effect was assessed in parallel.
# (§2) Five-fold serial dilutions of Compound 2 were prepared at a starting concentration of 50 μM and added in triplicate to 1.00E+04 Vero cells seeded in conical 96-well plates one day prior and incubated at 37° C. and 5% CO2 for one-hour. During the incubation time, viruses were thawed and inoculum prepared in infection medium. Stock and inoculum were maintained in wet ice at all time. Virus was then added to the Compound 2 dilutions/cells (1:1) and plates were incubated at 37° C. and 5% CO2 for 3-5 days.
# [2] = tested on: Dengue virus serotype 2 (DENV-2); assay: Antiviral testing against Dengue virus serotype 2 in Vero cells (CPE inhibition assay, immunostaining); details: DENV2, Vero, read-out: half maximal effective concentration (EC50), viral replication
# Description: as §1, §2
# Cells were immunostained. Then, medium was removed, cells were washed with PBS, fixed with cold 80%/20% (v/v) ethanol/methanol and incubated at −20° C. for 20 minutes. After removal of fixative the plates were air-dried, washed and stained with specific Ab #1, washed and stained with Ab #2-HRP conjugated. Then, cells were washed, 3,3′,5,5′-tetramethylbenzidine (TMB) substrate was added followed by addition of stop solution. The supernatant was transferred to a clean plate and signal read at 450 nm.
SMILES,confluence of Calu-3 cells infected with SARS-CoV-2 (SARS-CoV2/ZG/297-20),CC50 [1],EC50 [2]
"Nc1nn2cc(F)cnc2c1C(=O)Nc1cncc(F)c1N1CCC(C(=O)N2CCN(C3COC3)CC2)CC1 [Compound 1, 2-Amino-6-fluoro-pyrazolo[1,5-a]pyrimidine-3-carboxylic acid [5′-fluoro-4-(4-oxetan-3-yl-piperazine-1-carbonyl)-3,4,5,6-tetrahydro-2H-[1,4′]bipyridinyl-3′-yl]-amide]",significant improvement of the confluence of the cells,,
"Cn1cncc1-c1c(F)cncc1NC(=O)c1c(N)nn2cc(F)cnc12 [Compound 2, 2-Amino-6-fluoro-N-[5-fluoro-4-(1-methyl-1H-imidazol-5-yl)pyridin-3-yl]pyrazolo [1,5-a]pyrimidine-3-carboxamide]",significant improvement of the confluence of the cells,6.8 µM,0.46 µM
